Test results from the supplement of paper PMC4862054.

Assays:
Settings in all cases: incubation time: 72 h
[1] = system: HCC1937; experiment: normalised viability (% of control), CellTiter-Blue; higher = more viable cells (100 = DMSO, 0 = benzethonium chloride kill control)
Method: (§1)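 DSRT, CellTiter-Blue viability, 72 h incubation. Signal is normalised to DMSO and benzethonium chloride controls. Value is the normalised response at dose 1.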

[2] = system: CAL-148; experiment: as above
Method: as §1

[3] = system: MDA-MB-453; experiment: as above
Method: as §1

[4] = system: Hs578T; experiment: as above
Method: as §1

[5] = system: BT-474; experiment: as above
Method: as §1

[6] = system: HCC1599; experiment: as above
Method: as §1

[7] = system: HDQ-P1; experiment: as above
Method: as §1

[8] = system: DU-4475; experiment: as above
Method: as §1

[9] = system: MDA-MB-231; experiment: as above
Method: as §1

[10] = system: CAL-120; experiment: as above
Method: as §1

[11] = system: CAL-51; experiment: as above
Method: as §1

[12] = system: MDA-MB-468; experiment: as above
Method: as §1

[13] = system: MFM-223; experiment: as above
Method: as §1

[14] = system: MDA-MB-436; experiment: as above
Method: as §1

[15] = system: BT-549; experiment: as above
Method: as §1

[16] = system: HCC1143; experiment: as above
Method: as §1

[17] = system: SK-BR-3; experiment: as above
Method: as §1

[18] = system: CAL-85-1; experiment: as above
Method: as §1

[19] = system: HCC1937; experiment: normalised viability (% of control), CellTiter-Blue; higher = more viable cells (about 100 = DMSO control)
Outline: (§2)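 Breast cancer cell lines in 20 µl suspension were seeded onto 384-well plates pre-loaded with compound dissolved in 5 µl medium, then incubated 72 h. CellTiter-Blue reagent (2.5 µl) was added for 2 h at 37 °C and fluorescence read at 560/590 nm. Each plate was normalised to vehicle (100) and a positive kill control (0), with Z'-factor quality control. The value is normalised viability at one listed concentration of the series.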

[20] = system: Hs578T; experiment: as above
Outline: as §2

[21] = system: DU-4475; experiment: as above
Outline: as §2

[22] = system: MDA-MB-231; experiment: as above
Outline: as §2

[23] = system: CAL-51; experiment: as above
Outline: as §2

[24] = system: MDA-MB-468; experiment: as above
Outline: as §2

[25] = system: MFM-223; experiment: as above
Outline: as §2

[26] = system: MDA-MB-436; experiment: as above
Outline: as §2

[27] = system: HCC1143; experiment: as above
Outline: as §2

COc1cc(CCc2cc(NC(=O)c3ccc(N4CC(C)NC(C)C4)cc3)n[nH]2)cc(OC)c1 (stereo not given) [AZD4547]
Settings | normalised viability [%]
[1], 0.1 nM | 105
[2], 0.1 nM | 113
[3], 0.1 nM | 105
[4], 0.1 nM | 108
[5], 0.1 nM | 112
[6], 0.1 nM | 115
[7], 0.1 nM | 139
[8], 0.1 nM | 95.7
[9], 0.1 nM | 100
[10], 0.1 nM | 93.6
[11], 0.1 nM | 117
[12], 0.1 nM | 125
[13], 0.1 nM | 91.8
[14], 0.1 nM | 94.4
[15], 0.1 nM | 111
[16], 0.1 nM | 96
[17], 0.1 nM | 102
[18], 0.1 nM | 89.7
[19], 1 nM | 157
[19], 100 nM | 103
[19], 1000 nM | 115
[20], 1 nM | 102
[20], 100 nM | 91.2
[20], 1000 nM | 122
[21], 0.3 nM | 92.3
[21], 3 nM | 84
[21], 10 nM | 103
[22], 1 nM | 110
[22], 100 nM | 105
[22], 1000 nM | 113
[23], 0.3 nM | 120
[23], 3 nM | 107
[23], 10 nM | 99.8
[24], 1 nM | 113
[24], 100 nM | 105
[24], 1000 nM | 105
[25], 1 nM | 91
[25], 100 nM | 50.4
[25], 1000 nM | 12.3
[26], 1 nM | 105
[26], 100 nM | 104
[26], 1000 nM | 109
[27], 1 nM | 94.3
[27], 100 nM | 87.9
[27], 1000 nM | 93

c1cc(CN2CCCNCCNCCCNCC2)ccc1CN1CCCNCCNCCCNCC1 [Plerixafor]
Settings | normalised viability [%]
[1], 0.25 nM | 82.5
[2], 0.25 nM | 87.3
[3], 0.25 nM | 129
[4], 0.25 nM | 104
[5], 0.25 nM | 84
[6], 0.25 nM | 107
[7], 0.25 nM | 104
[8], 0.25 nM | 105
[9], 0.25 nM | 93.8
[10], 0.25 nM | 90
[11], 0.25 nM | 103
[12], 0.25 nM | 96.5
[13], 0.25 nM | 99
[14], 0.25 nM | 110
[15], 0.25 nM | 86.8
[16], 0.25 nM | 90.9
[17], 0.25 nM | 91.5
[18], 0.25 nM | 84.2
[19], 2.5 nM | 91.3
[19], 250 nM | 103
[19], 2500 nM | 111
[20], 2.5 nM | 117
[20], 250 nM | 97.3
[20], 2500 nM | 102
[21], 0.75 nM | 91.4
[21], 7.5 nM | 97.3
[21], 25 nM | 97.9
[22], 2.5 nM | 89.1
[22], 250 nM | 98.5
[22], 2500 nM | 102
[23], 0.75 nM | 106
[23], 7.5 nM | 99
[23], 25 nM | 103
[24], 2.5 nM | 109
[24], 250 nM | 112
[24], 2500 nM | 108
[25], 2.5 nM | 109
[25], 250 nM | 104
[25], 2500 nM | 101
[26], 2.5 nM | 116
[26], 250 nM | 107
[26], 2500 nM | 118
[27], 2.5 nM | 81
[27], 250 nM | 87.4
[27], 2500 nM | 83.2

Cc1ccc(Nc2nccc(N(C)c3ccc4c(C)n(C)nc4c3)n2)cc1S(N)(=O)=O [Pazopanib]
Settings | normalised viability [%]
[1], 1 nM | 77.9
[2], 1 nM | 89.3
[3], 1 nM | 106
[4], 1 nM | 94.8
[5], 1 nM | 93.2
[6], 1 nM | 103
[7], 1 nM | 72.8
[8], 1 nM | 98.9
[9], 1 nM | 97.7
[10], 1 nM | 78.5
[11], 1 nM | 103
[12], 1 nM | 106
[13], 1 nM | 90
[14], 1 nM | 95.8
[15], 1 nM | 110
[16], 1 nM | 87.1
[17], 1 nM | 105
[18], 1 nM | 93.6
[19], 10 nM | 86.7
[19], 1000 nM | 92
[19], 10000 nM | 94.3
[20], 10 nM | 117
[20], 1000 nM | 98.1
[20], 10000 nM | 90.8
[21], 3 nM | 97
[21], 30 nM | 100
[21], 100 nM | 104
[22], 10 nM | 86.3
[22], 1000 nM | 88.7
[22], 10000 nM | 61.4
[23], 3 nM | 108
[23], 30 nM | 103
[23], 100 nM | 99.9
[24], 10 nM | 106
[24], 1000 nM | 108
[24], 10000 nM | 99.4
[25], 10 nM | 86.8
[25], 1000 nM | 51.8
[25], 10000 nM | 58.6
[26], 10 nM | 97.5
[26], 1000 nM | 77.4
[26], 10000 nM | 77.4
[27], 10 nM | 76.5
[27], 1000 nM | 101
[27], 10000 nM | 60.7

O=C(CCBr)N1CCN(C(=O)CCBr)CC1 [Pipobroman]
Settings | normalised viability [%]
[1], 1 nM | 87.4
[2], 1 nM | 115
[3], 1 nM | 108
[4], 1 nM | 95.3
[5], 1 nM | 98.9
[6], 1 nM | 103
[7], 1 nM | 99.3
[8], 1 nM | 111
[9], 1 nM | 97.8
[10], 1 nM | 89.1
[11], 1 nM | 112
[12], 1 nM | 95
[13], 1 nM | 82.8
[14], 1 nM | 107
[15], 1 nM | 83.2
[16], 1 nM | 94.7
[17], 1 nM | 92.1
[18], 1 nM | 96
[19], 10 nM | 89.2
[19], 1000 nM | 77.9
[19], 10000 nM | 85.3
[20], 10 nM | 107
[20], 1000 nM | 97
[20], 10000 nM | 95.8
[21], 3 nM | 111
[21], 30 nM | 105
[21], 100 nM | 108
[22], 10 nM | 97.8
[22], 1000 nM | 104
[22], 10000 nM | 89.4
[23], 3 nM | 114
[23], 30 nM | 111
[23], 100 nM | 103
[24], 10 nM | 98
[24], 1000 nM | 94.2
[24], 10000 nM | 87.4
[25], 10 nM | 86.6
[25], 1000 nM | 90.4
[25], 10000 nM | 35.7
[26], 10 nM | 92.6
[26], 1000 nM | 98.7
[26], 10000 nM | 81.7
[27], 10 nM | 82
[27], 1000 nM | 86.2
[27], 10000 nM | 88.2
